Results as given in US11992011B2, “Compounds for controlling plant pathogens” (VIB VZW, priority 2017, dated 2024).

What was measured:
Assay type in all cases: in vivo
Pythium splendens = Pythium splendens in green bean with PA seed coating (Example 22)
Description: FIG. 25: (a) effect of a 500 μM piperonylic acid coating compared to a mock coating on germination in soil with or without Pythium splendens (PA: piperonylic acid coating, no Pythium; CON: mock coating, no Pythium; PA+Ps: piperonylic acid coating, Pythium splendens; CON+Ps: mock coating, Pythium splendens); N=45. (b) plant health score of emerged seedlings fourteen days after the start of the experiment. Scores: 0=seedling died after emergence; 1=seedling alive but stunted; 2=seedling healthy. (c) primary root length fourteen days after the start of the experiment, with bars indicating means and error bars standard deviation.

[1] = tested on: Fusarium oxysporum (isolate Foc26); assay: Onion seedling emergence with PA seed coating, Fusarium oxysporum (Example 12); conditions: onion seeds with 300 μM PA coating vs mock coating
Description: (§1) Seed coatings were applied by dipping seeds in a coating solution containing 20 g/I high viscosity carboxymethylcellulose (Sigma-Aldrich, Saint Louis, USA) in distilled water as well as 300 μM of the target compound. Seeds were then dried overnight at room temperature.
(§2) Onion seeds were coated with a 300 μM PA solution as outlined in the chemical treatments section. F. oxysporum (isolate Foc26), F. solani (isolate Fso18) and F. proliferatum (isolate Fpr18) were originally extracted from Vietnamese onion fields. Inoculum was obtained as described in the fungal culture section. The inoculum was diluted to a concentration of 1.0×10^7 spores per ml with sterile PBS buffer. The coated seeds were then soaked in the spore solution for one hour. To avoid excessive PA leaching from the PA coating, 100 μM of PA was added to the spore solution.
(§3) After soaking in the PA solution, seeds were left to dry for thirty minutes. Twenty seeds were then sowed per pot in potting soil; three pots were used per treatment and per fungal isolate (for a total of 60 seeds per treatment-isolate combination). The pots were covered in cling film and left on a window sill at room temperature. After eight and ten days, the number of germinated seedlings per pot was counted.
(§4) Germination experiments were analyzed by fitting a three-parameter log-logistic model as implemented in the R drc package.

Meloidogyne incognita [2] = assay: M. incognita infection in DIECA-treated tomato (Example 18); conditions: PA together with DIECA
Description: (§5) Infection experiments with M. incognita were performed in the same manner as those with M. graminicola, except that plants were harvested 31 days after inoculation instead of 14 days. At this point, the plants were phenotyped by measuring the root length with a ruler and in some experiments by measuring leaf area using the EasyLeafArea software (Easlon and Bloom, 2014) and by determining shoot dry mass after 72 hours of drying in an oven at 70° C. Galls were stained and counted as described above.
To determine whether C4H inhibitors depend on this hormonal pathway, it was tested whether tomato plants treated with the chemical inhibitor of jasmonic acid biosynthesis diethyldithiocarbamate (DIECA) (Farmer et al., 1994) still responded to PA treatment.

[3] = tested on: Fusarium proliferatum (isolate Fpr18); assay: Onion seedling emergence with PA seed coating, Fusarium proliferatum (Example 12); conditions: onion seeds with 300 μM PA coating vs mock coating
Description: as §1, §2, §3, §4

[4] = tested on: Botrytis cinerea (isolate R16); assay: Botrytis cinerea infection of detached tomato leaves (Example 13); parameters: dose or concentration left out as unconfirmed; conditions: spray containing PA, four days after inoculation, vs control
Description: Tomato plants (cv. Moneymaker) were grown for four weeks in potting soil as described in the plant material section. Six hours before inoculation, the third leaf of each tomato plant was detached. The petioles were wrapped in wet tissue paper and the leaves were placed on a petri dish. […] Finally, the tray was covered with a plastic autoclave bag to keep humidity at 100%.
Botrytis cinerea (line R16) spores were obtained as described in the fungal culture section, centrifuged for five minutes at 3000 rpm and resuspended to a concentration of 1.0×10^6 spores per ml with a solution of 0.01 M glucose and 0.0067 M KH2PO4. The spore suspension was left at room temperature for one hour to trigger germination. […]
Six drops of spore suspension of 15 μl each were spotted on each detached tomato leaf, after which the tray was covered again. The tray was placed at room temperature away from direct sunlight and left for four days. At this point, chlorophyll fluorescence measurements were taken to assess the success of infection. Two parameters were assessed: whether the B. cinerea lesion had spread beyond the droplet area (successful invasion) and the total surface area of successfully established lesions (post-invasion growth).

Pratylenchus penetrans = Pratylenchus penetrans infection in wheat cv. Sahara (Example 10); conditions: PA foliar spray
Description: For Examples 1, 5 and 10, seeds of the winter wheat cultivar Sahara (Aveve Agrarisch, Landen, Belgium) were used. Seeds were washed in a 10% ethanol solution to remove any residual traces of fungicide and then germinated on wet paper at room temperature for four days; seeds were transferred to SAP tubes and placed in a growth chamber (25° C., 16 hours per day of light). Plants were watered with 8 ml of half-strength Hoagland solution every two days for the first ten days and with 8 ml of full strength Hoagland solution every two days afterwards.
A pure culture of P. penetrans grown on carrot disks was kindly provided by Giuseppi Lucarelli (Horto Service, Noicattaro, Italy). The nematodes were multiplied by inoculating approximately 100 nematodes on a sterilized carrot disk, placing this disk in a sealed petri dish and incubating the dish at 24° C. for six weeks in the dark. Carrots were sterilized by washing and peeling them, then dipping them in ethanol and finally burning the ethanol off in a Bunsen burner.
Unless otherwise mentioned, all chemicals for nematode experiments were applied as a foliar spray consisting of the target compound at a concentration of 300 μM together with 0.1% (v/v) Tween 20 surfactant (Calbiochem) in distilled water. Again unless otherwise mentioned, all treatments for the nematode experiments were carried out three times: one and eight days before pathogen inoculation and seven days after pathogen inoculation. In all cases, plants were sprayed until run-off with an atomizer.
Infection experiments with P. penetrans were performed by inoculating host plants 14 days after transfer to SAP by introducing 500 nematodes to their root system using a micro pipette. Plants were harvested 31 days after inoculation. At this point, the plants were phenotyped. Lesions were counted manually using a magnifying glass after washing and spreading open the root system. Nematodes were counted by macerating the root systems with a kitchen blender, placing a root system in 30 ml of autoclaved tap water for 24 hours and finally counting the number of nematodes in four 500 μl aliquots from each 30 ml root suspension under a binocular microscope.

Meloidogyne incognita [5] = assay: M. incognita infection in NahG-expressing tomato (Example 17)
Description: as §5
To evaluate this further, a tomato line deficient in salicylic acid biosynthesis and signaling respectively was treated with PA. […] If this line still responds to PA, it further strengthens the notion that salicylic acid accumulation is not the cause of C4H inhibitor-induced nematode resistance, for which evidence in rice was already provided in Example 16.

[6] = infected wheat, mean ± SD, n = 8

## O=C(O)c1ccc2c(c1)OCO2 [PA, Piperonylic acid]
Pythium splendens; 500 μM PA seed coating vs mock coating
  emergence in soil containing P. splendens: did not improve emergence
Pythium splendens; 500 μM PA seed coating vs mock coating, fourteen days
  seedling health after emergence: significantly improved
Pythium splendens; 500 μM PA seed coating, fourteen days
  primary root length in P. splendens-infested soil vs control-coated seeds: longer
[1]
  improvement of seedling emergence: +42%
Meloidogyne incognita [2]
  change of number of galls, plants treated with both PA and DIECA vs untreated wild type plants: −31%
Meloidogyne incognita [2]; not significant
  difference in number of galls, plants treated with both PA and DIECA vs PA-treated wild type plants: +14%
[3]
  improvement of seedling emergence: +79%
[4]
  change of mean size of successfully established/spreading lesions: −62%
  change of number of inoculation spots in which fungal lesions developed: −50%
Pratylenchus penetrans; [6]
  Number of lesions: 14.4 ± 6.8
  Number of nematodes per root system: 165.6 ± 61.1
Pratylenchus penetrans; wheat, vs control
  change of mean number of P. penetrans nematodes found in the root system: −32%
  change of mean number of root lesions in the host plant: −39%
Meloidogyne incognita [5]; NahG-expressing (SA-deficient) tomato
  change of number of galls, PA-treated NahG plants vs untreated wild type plants: −36%
Meloidogyne incognita [5]; NahG-expressing tomato, not significant
  difference in number of galls, PA-treated NahG plants vs PA-treated wild type plants: +9%
